{"source": "paper PMC7193532", "about": "(Acta Crystallographica. Section D, Structural Biology, 2020)", "key": {"[1]": {"target": "ClpC1-FL (Mycobacterium tuberculosis, UniProt P9WPC9)", "format": "binding", "conditions": "for Stoichiometry (Sm): calculated from SPR responses, compound molecules per ClpC1; for improvement of χ^2, multi-site versus one-site fit: multi-site fit better; for difference between Kd1 and Kd2: multi-site model"}, "[2]": {"system": "ClpC1", "conditions": "cited from earlier work"}, "[3]": {"system": "Mtb"}, "[4]": {"system": "ClpC1–ClpP1–ClpP2 complex", "conditions": "2019, cited from earlier work; for effect on proteolytic activity: ECU, lassomycin: ref Choules et al., Gavrish et al., 2014; for effect on proteolysis: CYMA, RUF-I: ref Schmitt et al., 2011, Choules et al."}, "[5]": {"conditions": "co-crystallization attempts"}, "[6]": {"system": "ClpC1", "conditions": "cited from earlier work", "remark": "listed apart in the source"}, "[7]": {"target": "N-terminal domain of ClpC1 (ClpC1-NTD), residues 1-145 plus a C-terminal His tag (Mycobacterium tuberculosis) (UniProt P9WPC9)", "assay": "crystal structure"}, "[8]": {"target": "full-length ClpC1 (ClpC1-FL) (Mycobacterium tuberculosis) (UniProt P9WPC9)", "assay": "SPR"}}, "note": "*1 amine or outer side, *2 acyl side, *3 side chain or, on linkers, in order; H or OH if unused. Where a SMILES comes first, the peptide text is derived from it. Bridges are numbered along the chain shown (N, C = ends). [ ]: non-standard residue; d: D form. The star is where a group is joined. ξ: configuration not given here. Phe(3R-OH) = O=C([C@@H](N[*:1])[C@H](O[*:3])c1ccccc1)[*:2]; NMeTrp(4-OMe) = CN[CH](Cc1c[nH]c2cccc(OC)c12)C(=O)O; X1 = O=C(C(N[*:1])C(O)c1ccccc1)[*:2]; NMeT = CN[CH](C(=O)O)[CH](C)O; NMeI = CC[CH](C)[CH](NC)C(=O)O; ξNMe2Val = CC(C)C(C(=O)*)N(C)C; NMeL = CN[CH](CC(C)C)C(=O)O; NMeV = CN[CH](C(=O)O)C(C)C", "data": [{"compound": "CCC(C)C(C(=O)NC1C(=O)N(C)C(C(C)O)C(=O)NC(C(C)C)C(=O)N(C)C(CC(C)C)C(=O)NC(C(C)C)C(=O)N(C)C(C(C)C)C(=O)N(C)C(Cc2c[nH]c3cccc(OC)c23)C(=O)NC(C(C)C)C(=O)NC(C(O)c2ccccc2)C(=O)NC(C(C)C)C(=O)OC1C)N(C)C(=O)C(NC(=O)C(C(C)C)N(C)C)C(C)C", "note": "(stereo not drawn) [ECU, ecumicin] (ξNMe2Val-V[NMeI]T[NMeT]V[NMeL]V[NMeV][NMeTrp(4-OMe)]V[X1]V; ester 3-C; configuration not given here)", "values": [{"measurement": "χ^2 of one-site fit", "setting": "[1]; 1:1 Langmuir model, smaller = better fit", "value": 16.1}, {"measurement": "Stoichiometry (Sm)", "setting": "[1]", "value": 2.2}, {"measurement": "χ^2 of multi-site fit", "setting": "[1]; heterogeneous ligand model, smaller = better fit", "value": 3.2}, {"measurement": "improvement of χ^2, multi-site versus one-site fit", "setting": "[1]", "value": "fivefold"}, {"measurement": "difference between Kd1 and Kd2", "setting": "[1]", "value": "about 18 fold"}, {"measurement": "effect on ATPase activity", "setting": "[2]", "value": "activate the ATPase activity"}, {"measurement": "enhancement of ATPase activity of ClpC1", "setting": "[2]", "value": "at least twofold"}, {"measurement": "MIC90", "setting": "[3]", "value": "0.11 ± 0.013", "unit": "µM"}, {"measurement": "effect on proteolytic activity", "setting": "[4]", "value": "decrease the proteolytic activity"}, {"measurement": "solubility (in words)", "setting": "[5]", "value": "poor solubility"}]}, {"compound": "CN[C@H](C(=O)N[C@H](C(=O)N[C@@H]1C(=O)N(C)[C@@H]([C@@H](C)O)C(=O)N[C@@H](C(C)C)C(=O)N(C)[C@@H](CC(C)C)C(=O)N[C@@H](C(C)C)C(=O)N(C)[C@@H](C(C)C)C(=O)N(C)[C@@H](Cc2c[nH]c3cccc(OC)c23)C(=O)N[C@@H](C(C)C)C(=O)N[C@@H]([C@H](O)c2ccccc2)C(=O)N[C@@H](C(C)C)C(=O)O[C@@H]1C)C(C)C)C(C)C", "note": "[OMS-A, ohmyungsamycin A] (H-[NMeV]VT[NMeT]V[NMeL]V[NMeV][NMeTrp(4-OMe)]V[Phe(3R-OH)]V; ester 3-C)", "values": [{"measurement": "Stoichiometry (Sm)", "setting": "[1]", "value": 2.2}, {"measurement": "improvement of χ^2, multi-site versus one-site fit", "setting": "[1]", "value": "threefold"}, {"measurement": "difference between Kd1 and Kd2", "setting": "[1]", "value": "fivefold"}]}, {"compound": "C/C=C/C[C@@H]1NC(=O)[C@H](CC(C)C)N(C)C(=O)[C@H](CC(C)C)NC(=O)[C@H](Cc2ccc(O)c([N+](=O)[O-])c2)NC(=O)[C@H](C)N2C(=O)[C@H](CC(C)C2O)N(C)C(=O)[C@H](Cc2cn(C(C)(C)C3CO3)c3ccccc23)NC1=O", "note": "(stereo partly drawn) [RUF-I, rufomycin I]", "values": [{"measurement": "effect on ATPase activity", "setting": "[2]", "value": "no significant effect"}, {"measurement": "enhancement of ATPase activity of ClpC1", "setting": "[2]", "value": "no significant effect"}, {"measurement": "binding in the presence of ECU", "setting": "[6]", "value": "cannot bind in the presence of ECU"}, {"measurement": "effect on proteolysis", "setting": "[4]", "value": "inhibition"}]}, {"compound": "cyclomarin A [CYMA, reference compound]", "values": [{"measurement": "effect on ATPase activity", "setting": "[2]", "value": "no effect on the ATPase activity"}, {"measurement": "effect on proteolysis", "setting": "[4]", "value": "activation"}]}, {"compound": "ecumicin (ECU) (peptide)", "values": [{"measurement": "stoichiometry N (ECU per ClpC1-NTD)", "setting": "[7]", "value": 2}, {"measurement": "stoichiometry N", "setting": "[8]", "value": 2.2}]}, {"compound": "lassomycin [reference compound]", "values": [{"measurement": "effect on ATPase activity", "setting": "[2]", "value": "activate the ATPase activity"}, {"measurement": "effect on proteolytic activity", "setting": "[4]", "value": "decrease the proteolytic activity"}]}, {"compound": "ohmyungsamycin A (OMS-A) (peptide)", "values": [{"measurement": "stoichiometry N", "setting": "[8]", "value": 2.2}]}, {"compound": "ohmyungsamycin B (OMS-B) (peptide)", "values": [{"measurement": "Kd1 (site 1, multi-site fit)", "setting": "[8]", "value": 962, "unit": "nM"}, {"measurement": "Kd2 (site 2, multi-site fit)", "setting": "[8]", "value": 1740, "unit": "nM"}]}, {"compound": "ohmyungsamycin B [OMS-B]", "values": [{"measurement": "reduction in binding relative to ECU", "setting": "[1]; structural analogs of ECU", "value": "tenfold"}]}]}
